The values that follow come from ChEMBL document CHEMBL1201862, “PubChem BioAssay data set” (2004).

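Results reflect a 48-hour exposure of cells in 96-well plates to compound at five concentrations. GI50 is the concentration that inhibits growth by half.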 Activity calls are given as the source filed them. No stated cut-off is given here; in the data, active = GI50 up to about 1.1 µM and inactive = higher.

Holding throughout (test): DTP human tumour cell line panel, 48 h
Test [1] relates to HCT-15.
Test [2] relates to RXF 393.
The subject of test [3] is MCF7.
The subject of test [4] is UO-31.
In test [5] the test system is NCI-H460.
In test [6] the test system is CCRF-CEM.
Test [7] relates to HT-29.
Test [8] deals with NCI-H522.
Test [9] concerns SNB-75.
The test system of test [10] is MOLT-4.
Test [11] deals with SF-539.
The test system of test [12] is OVCAR-4.
Test [13] has as its system SK-OV-3.
Test [14] concerns HCT-116.
The test system of test [15] is HCC 2998.
Test [16] relates to TK-10.
The subject of test [17] is M14.
Test [18] deals with ACHN.
For test [19], the system named is 786-0.
Test [20] relates to DU-145.

As a reminder, the GI50 is the concentration at which growth is held to half of that of the control. For `CN1C(=O)c2ccccc2NC(=O)c2cnn(C)c21`, the GI50 in [1] is greater than 100 µM; in test [2], > 100 µM (inactive); in test [3], > 100 µM (inactive); in [4], > 100 µM (inactive); in test [5], > 100 µM (inactive); in test [6], > 100 µM (inactive). Besides, the GI50 in test [7], in [8], in test [9], in [10], in test [11] and in test [12] was > 100 µM (inactive) each time. The GI50 in test [13] was > 100 µM (inactive); in test [14] it was > 21.6 µM (inactive); in test [15] it was > 100 µM (inactive).
As to `C/C(CCOC1CCCCO1)=C(\C)[Si](C)(C)C` (centres undefined), the GI50 in [1] was greater than 100 µM; in [16] it was > 100 µM (inactive); in test [17] it was > 100 µM (inactive); in test [4] it was > 100 µM (inactive); in [5], > 100 µM (inactive); in test [6], 65.5 µM (inactive). The GI50 in test [7] was > 100 µM (inactive); in [8] it was > 100 µM (inactive); in test [9], > 100 µM (inactive); in test [10], 72.8 µM (inactive); in test [11], > 100 µM (inactive); in [13] it was > 10 µM (inactive). Moreover, the GI50 in [14], in test [18] and in test [15] was > 100 µM (inactive) throughout.
As for `O=C(Nc1nnc(S)[nH]1)C(=O)C(c1cnc2ccc([N+](=O)[O-])cc2n1)[N+](=O)[O-]` (centres undefined), the GI50 was 72.9 µM in test [1]; > 100 µM (inactive) in test [16]; > 100 µM (inactive) in [17]; > 100 µM (inactive) in [2]; > 100 µM (inactive) in test [19]; > 100 µM (inactive) in test [4]. In addition, the GI50 in [5] is > 100 µM (inactive); in test [6], > 100 µM (inactive); in test [7] it was > 100 µM (inactive); in test [8], 16.2 µM (inactive); in [9], > 100 µM (inactive); in test [10], > 100 µM (inactive). The GI50 is > 100 µM (inactive) in [11]; > 100 µM (inactive) in test [12]; > 100 µM (inactive) in test [13]; > 100 µM (inactive) in [14]; 94.8 µM (inactive) in test [18]; > 100 µM (inactive) in test [15].
For `CN(C)CCNc1ccc(NCC[N+](C)(C)Cc2ccc([N+](=O)[O-])cc2)c2c1C(=O)c1ccccc1C2=O`, the GI50 is > 25 µM (inactive) in test [16]; 21.6 µM (inactive) in test [17]; > 25 µM (inactive) in test [2]; 16.2 µM (inactive) in [19]; 11.9 µM (inactive) in [3]; 9.51 µM (inactive) in [4]. For the same molecule, the GI50 in test [7] was 16.6 µM (inactive); in test [8] it was 8.73 µM (inactive); in [9] it was > 25 µM (inactive); in test [10], 9.04 µM (inactive); in [13] it was > 25 µM (inactive); in [14], 10.9 µM (inactive). In addition, the results for the GI50 in test [18] and in [20] were 12.1 µM (inactive) and 14.1 µM (inactive), respectively.
`C=CCCCC12CCCc3cccc(c31)NC2=O` (centres undefined): the GI50 was 19.6 µM (inactive) in test [16]; 14.4 µM (inactive) in test [17]; 17.6 µM (inactive) in test [2]; 30.4 µM (inactive) in test [4]; 16.8 µM (inactive) in test [5]; 16.9 µM (inactive) in test [6]. The GI50 in [8] is 16.9 µM (inactive); in [10] it was 18.8 µM (inactive); in test [11], 19.6 µM (inactive); in [12], 18.9 µM (inactive); in test [13] it was 19.7 µM (inactive); in test [14], 13.6 µM (inactive). Besides, the GI50 is 28.1 µM (inactive) in [18] and 16.4 µM (inactive) in [15].
In the case of `COc1ccc(-n2cnnc2-c2nsc3ccccc23)cc1`, the GI50 in test [1] is 51.6 µM; in test [16] it was > 100 µM (inactive); in test [17] it was > 100 µM (inactive); in test [2] it was 12.4 µM (inactive); in [4] it was > 100 µM (inactive); in [5], > 100 µM (inactive). The GI50 is > 100 µM (inactive) in test [6]; 92.5 µM (inactive) in test [7]; 22.2 µM (inactive) in test [9]; > 100 µM (inactive) in test [10]; 23.4 µM (inactive) in test [11]; > 100 µM (inactive) in test [12]. In addition, the GI50 in test [14] is > 100 µM (inactive); in test [18] it was 90.6 µM (inactive); in test [15] it was > 100 µM (inactive).
As to `CCOC(=O)N1CCC(=O)C(CNC23CC4CC(CC(C4)C2)C3)C1` (centres undefined), the GI50 in [16] was > 100 µM (inactive); in [2] it was 17.2 µM (inactive); in test [19], 15.6 µM (inactive); in test [4], 51.5 µM (inactive); in test [5], > 100 µM (inactive); in test [6], 16.9 µM (inactive). The GI50 was 22.4 µM (inactive) in [7]; 16.7 µM (inactive) in test [8]; 13.9 µM (inactive) in test [10]; > 100 µM (inactive) in test [11]; 15.1 µM (inactive) in [12]; > 100 µM (inactive) in [13]. Besides, in test [18], the GI50 was 17.5 µM (inactive).
On to `COc1ccc(C2=Nn3c(nnc(Cc4ccc(Cl)cc4)c3=O)SC2)cc1`, for which the GI50 in test [1] was 29 µM; in test [16] it was > 100 µM (inactive); in test [17] it was 31.5 µM (inactive); in [2], 27.7 µM (inactive); in test [19] it was 45 µM (inactive); in [3] it was 27.9 µM (inactive). Besides, the GI50 is 52.1 µM (inactive) in test [4]; 37.8 µM (inactive) in [5]; 38.3 µM (inactive) in [6]; 30.4 µM (inactive) in [7]; 42.4 µM (inactive) in test [8]; 26.7 µM (inactive) in test [10]. Besides, the GI50 in [11] was 37.8 µM (inactive); in test [12], 42.9 µM (inactive); in test [13] it was 55.3 µM (inactive); in [14], 28.1 µM (inactive); in test [18], 64.7 µM (inactive); in [20], 59.3 µM (inactive). Further, in test [15], the GI50 was 55.1 µM (inactive).
Consider `CCN(CC)CCn1c(=O)c2c(C)c3oc4ccccc4oc3c(C)c2c1=O`, for which the GI50 in [1] was greater than 100 µM; in [16], > 100 µM (inactive); in test [17] it was > 100 µM (inactive); in test [2], > 100 µM (inactive); in test [19], 48.2 µM (inactive); in test [3], > 100 µM (inactive). Also, the GI50 in test [5], in test [6], in test [7], in [8], in test [9] and in [10] was > 100 µM (inactive) throughout. The GI50 in [11], in test [12], in [13], in test [14], in test [18] and in [15] was > 100 µM (inactive) each time.
For the molecule `O=C(O)CSc1nnc(-c2ccc(O)cc2)[nH]1`, the GI50 was greater than 100 µM in test [1]; > 100 µM (inactive) in test [16]; > 100 µM (inactive) in test [17]; > 100 µM (inactive) in test [19]; > 100 µM (inactive) in test [4]; > 100 µM (inactive) in test [5]. Moreover, the GI50 was > 100 µM (inactive) in test [6]; > 100 µM (inactive) in test [7]; > 100 µM (inactive) in [8]; 41 µM (inactive) in test [9]; > 100 µM (inactive) in [10]; > 100 µM (inactive) in test [11]. Moreover, the GI50 in test [12], in test [13], in [14], in test [18] and in test [15] was > 100 µM (inactive) in each case.
On to `CC(=O)OC(/C=C1/C=CC(=O)O1)COC(=O)c1ccccc1` (centres undefined) [ACETYLMELODORINOL], for which the GI50 in [16], in test [17], in [2], in [19], in [4] and in test [5] was > 31.2 µM (inactive) each time. The GI50 in test [6], in [7], in test [8], in test [9], in test [11] and in [12] was > 31.2 µM (inactive) in each case. Moreover, the GI50 in test [13], in [14], in [18] and in test [15] was > 31.2 µM (inactive) in each case.
In the case of `COC1=CC(=O)c2c(c(O)c3oc4cc(OC)cc(C)c4c(=O)c3c2O)C1=O` [BIKAVERIN], the GI50 in test [1] is 1.21 µM; in [2] it was 0.912 µM (active); in test [3], 1.69 µM (inactive); in test [4], 1.36 µM (inactive); in test [5], 1.34 µM (inactive); in test [6], 0.741 µM (active). For the same molecule, the GI50 is 19.4 µM (inactive) in test [7]; 0.716 µM (active) in test [8]; 1.21 µM (inactive) in test [9]; 0.671 µM (active) in [10]; 1.32 µM (inactive) in [11]; 1.27 µM (inactive) in [12]. The GI50 is 1.56 µM (inactive) in [13], 1.02 µM (active) in test [14] and 9.91 µM (inactive) in test [15].
